One assay has as its target hNav1.7 (Homo sapiens, UniProt Q15858). Description: cell-based. Format: cell-based. Conditions: Table 12; PatchXpress, tonic block; read-out: PX hNav1.7 Tonic IC50.
A further assay addresses hNav1.4 (Homo sapiens, UniProt P35499). Description: cell-based. Format: cell-based. Conditions: Table 12; for IC50: PatchXpress, tonic block, read-out: PX hNav1.4 Tonic IC50; for Nav1.4/Nav1.7: ratio of PX tonic IC50 values.

Sequence of hNav1.4 (P35499 whole entry): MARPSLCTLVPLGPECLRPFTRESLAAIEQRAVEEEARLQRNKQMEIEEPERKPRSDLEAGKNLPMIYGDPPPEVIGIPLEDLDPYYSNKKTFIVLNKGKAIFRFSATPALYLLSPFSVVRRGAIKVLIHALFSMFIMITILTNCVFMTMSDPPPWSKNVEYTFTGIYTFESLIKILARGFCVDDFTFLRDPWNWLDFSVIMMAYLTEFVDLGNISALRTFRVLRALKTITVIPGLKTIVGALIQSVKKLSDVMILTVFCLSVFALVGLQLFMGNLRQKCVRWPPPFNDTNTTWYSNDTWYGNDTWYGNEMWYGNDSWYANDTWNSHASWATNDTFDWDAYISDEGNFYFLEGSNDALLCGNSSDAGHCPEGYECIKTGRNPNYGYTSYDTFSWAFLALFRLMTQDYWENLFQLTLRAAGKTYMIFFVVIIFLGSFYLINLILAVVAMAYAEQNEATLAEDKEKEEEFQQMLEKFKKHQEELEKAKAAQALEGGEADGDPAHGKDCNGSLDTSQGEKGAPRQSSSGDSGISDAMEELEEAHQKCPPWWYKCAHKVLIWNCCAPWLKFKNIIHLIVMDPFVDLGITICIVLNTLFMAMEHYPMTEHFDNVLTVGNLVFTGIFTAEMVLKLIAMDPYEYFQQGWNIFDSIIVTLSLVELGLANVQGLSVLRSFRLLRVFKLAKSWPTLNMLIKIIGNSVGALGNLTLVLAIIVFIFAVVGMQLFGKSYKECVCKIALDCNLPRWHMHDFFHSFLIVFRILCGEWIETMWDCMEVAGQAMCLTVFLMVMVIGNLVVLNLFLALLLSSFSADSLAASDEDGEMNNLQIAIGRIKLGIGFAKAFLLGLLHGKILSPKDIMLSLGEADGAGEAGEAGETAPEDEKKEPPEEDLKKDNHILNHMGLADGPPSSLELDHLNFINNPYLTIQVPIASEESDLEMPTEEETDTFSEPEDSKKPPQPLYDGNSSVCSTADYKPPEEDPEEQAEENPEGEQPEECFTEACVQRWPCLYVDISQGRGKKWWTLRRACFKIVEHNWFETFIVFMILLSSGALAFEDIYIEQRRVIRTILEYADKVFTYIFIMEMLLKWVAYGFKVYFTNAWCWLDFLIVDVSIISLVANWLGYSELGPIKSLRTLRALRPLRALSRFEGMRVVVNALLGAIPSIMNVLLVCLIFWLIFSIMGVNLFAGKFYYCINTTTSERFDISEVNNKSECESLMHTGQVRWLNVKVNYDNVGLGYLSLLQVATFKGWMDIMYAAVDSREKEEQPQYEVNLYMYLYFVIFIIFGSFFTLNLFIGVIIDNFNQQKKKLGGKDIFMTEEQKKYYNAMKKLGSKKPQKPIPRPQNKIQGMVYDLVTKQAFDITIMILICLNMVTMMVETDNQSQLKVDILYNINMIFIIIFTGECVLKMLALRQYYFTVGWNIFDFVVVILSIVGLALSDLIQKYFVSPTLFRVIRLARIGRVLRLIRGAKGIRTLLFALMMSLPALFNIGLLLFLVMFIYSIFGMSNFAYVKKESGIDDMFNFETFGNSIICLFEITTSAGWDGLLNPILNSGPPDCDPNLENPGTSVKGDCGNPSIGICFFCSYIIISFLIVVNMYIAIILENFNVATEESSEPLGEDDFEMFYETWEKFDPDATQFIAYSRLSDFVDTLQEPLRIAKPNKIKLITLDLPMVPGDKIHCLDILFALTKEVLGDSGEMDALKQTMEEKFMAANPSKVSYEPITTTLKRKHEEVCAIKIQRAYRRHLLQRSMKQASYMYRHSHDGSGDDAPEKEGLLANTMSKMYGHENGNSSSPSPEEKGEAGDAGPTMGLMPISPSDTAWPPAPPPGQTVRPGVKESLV
Sequence of hNav1.7 (Q15858 whole entry): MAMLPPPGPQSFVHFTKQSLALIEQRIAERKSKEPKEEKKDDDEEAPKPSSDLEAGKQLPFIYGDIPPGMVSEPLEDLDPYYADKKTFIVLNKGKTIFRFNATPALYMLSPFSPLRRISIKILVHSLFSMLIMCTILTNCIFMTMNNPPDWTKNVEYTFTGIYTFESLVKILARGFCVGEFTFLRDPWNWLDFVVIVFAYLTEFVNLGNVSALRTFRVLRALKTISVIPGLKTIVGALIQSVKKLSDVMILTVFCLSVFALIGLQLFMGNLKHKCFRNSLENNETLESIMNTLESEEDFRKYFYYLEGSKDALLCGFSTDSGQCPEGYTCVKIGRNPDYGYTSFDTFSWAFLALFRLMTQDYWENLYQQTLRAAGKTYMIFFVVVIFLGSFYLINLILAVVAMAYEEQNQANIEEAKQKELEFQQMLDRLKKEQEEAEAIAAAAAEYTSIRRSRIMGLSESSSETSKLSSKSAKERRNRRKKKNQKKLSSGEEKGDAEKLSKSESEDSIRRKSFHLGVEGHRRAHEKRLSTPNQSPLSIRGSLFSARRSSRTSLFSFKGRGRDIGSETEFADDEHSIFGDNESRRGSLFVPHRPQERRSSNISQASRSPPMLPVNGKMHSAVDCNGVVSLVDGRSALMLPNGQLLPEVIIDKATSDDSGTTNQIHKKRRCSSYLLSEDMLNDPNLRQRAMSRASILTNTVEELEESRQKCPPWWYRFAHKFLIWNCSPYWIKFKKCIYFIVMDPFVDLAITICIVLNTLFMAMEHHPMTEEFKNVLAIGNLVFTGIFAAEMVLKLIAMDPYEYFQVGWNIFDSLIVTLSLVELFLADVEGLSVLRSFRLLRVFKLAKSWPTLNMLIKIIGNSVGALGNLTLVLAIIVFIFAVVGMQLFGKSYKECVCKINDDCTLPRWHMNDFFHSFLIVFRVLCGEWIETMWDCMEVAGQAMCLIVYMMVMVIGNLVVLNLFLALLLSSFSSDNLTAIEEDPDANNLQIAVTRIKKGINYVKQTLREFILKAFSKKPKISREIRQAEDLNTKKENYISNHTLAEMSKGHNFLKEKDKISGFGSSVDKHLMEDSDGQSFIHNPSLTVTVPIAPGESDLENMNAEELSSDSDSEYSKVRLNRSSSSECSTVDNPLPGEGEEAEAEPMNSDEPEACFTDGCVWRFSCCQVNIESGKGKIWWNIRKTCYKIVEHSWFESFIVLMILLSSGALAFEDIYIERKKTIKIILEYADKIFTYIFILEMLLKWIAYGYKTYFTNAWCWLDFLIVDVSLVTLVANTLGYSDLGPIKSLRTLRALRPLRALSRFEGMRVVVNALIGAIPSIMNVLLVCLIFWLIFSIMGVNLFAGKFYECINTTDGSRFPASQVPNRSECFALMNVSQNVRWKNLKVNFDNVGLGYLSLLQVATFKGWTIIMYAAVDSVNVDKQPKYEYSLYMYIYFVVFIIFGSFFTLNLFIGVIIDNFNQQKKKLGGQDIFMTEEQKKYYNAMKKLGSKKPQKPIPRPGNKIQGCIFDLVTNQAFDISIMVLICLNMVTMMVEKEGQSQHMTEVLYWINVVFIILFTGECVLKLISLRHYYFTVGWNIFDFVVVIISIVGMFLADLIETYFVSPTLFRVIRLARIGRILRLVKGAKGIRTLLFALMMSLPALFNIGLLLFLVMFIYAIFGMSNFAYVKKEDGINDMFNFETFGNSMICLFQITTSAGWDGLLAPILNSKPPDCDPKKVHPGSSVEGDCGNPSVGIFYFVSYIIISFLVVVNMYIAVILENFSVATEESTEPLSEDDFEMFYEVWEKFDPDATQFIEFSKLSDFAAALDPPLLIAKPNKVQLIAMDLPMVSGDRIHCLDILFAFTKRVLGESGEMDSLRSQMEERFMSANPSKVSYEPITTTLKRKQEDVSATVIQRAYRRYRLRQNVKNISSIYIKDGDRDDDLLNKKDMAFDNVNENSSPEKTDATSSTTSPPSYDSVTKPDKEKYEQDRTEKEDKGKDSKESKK

`C#CC[C@H](N)C(=O)N[C@@H](Cc1ccc(O)cc1)C(=O)N[C@H]1C[Se][Se]C[C@@H]2NC(=O)[C@@H]3CSSC[C@@H](C(=O)N[C@@H](CCCNC(=N)N)C(=O)N[C@@H](CCCCN)C(=O)N[C@@H](CCC(=O)O)C(=O)N[C@H](C(N)=O)[C@@H](C)CC)NC(=O)[C@H](Cc4c[nH]c5ccccc45)NC(=O)[C@H](CC(C)C)NC(=O)[C@H](CCCCN)NC(=O)[C@H](CSSC[C@H](NC(=O)[C@H]([C@@H](C)O)NC(=O)[C@H](Cc4c[nH]c5ccccc45)NC(=O)[C@H](CCCC)NC(=O)[C@H](Cc4c[nH]c5ccccc45)NC(=O)[C@H](CCCCN)NC(=O)[C@H](CCC(N)=O)NC1=O)C(=O)N[C@@H](CC(=O)O)C(=O)N[C@@H](CO)C(=O)N[C@@H](CCCCN)C(=O)N[C@@H](CCCNC(=N)N)C(=O)N[C@@H](C)C(=O)N3)NC(=O)[C@H](CCCNC(=N)N)NC(=O)[C@H](CC(C)C)NC(=O)CNC(=O)[C@H](CCC(=O)O)NC2=O` [compound 838]: the IC50 – broadly, the concentration at which inhibition is half-maximal – on hNav1.7 was 0.949 nM. At hNav1.4, the half-maximal inhibitory concentration (IC50) worked out at 58.1 nM and the Nav1.4/Nav1.7 was found to be 61.
For `C#CC[C@H](N)C(=O)N[C@@H](Cc1ccc(O)cc1)C(=O)N[C@H]1CSSC[C@@H]2NC(=O)[C@@H]3CSSC[C@@H](C(=O)N[C@@H](CCCNC(=N)N)C(=O)N[C@@H](CCCCN)C(=O)N[C@@H](CCC(=O)O)C(=O)N[C@H](C(N)=O)[C@@H](C)CC)NC(=O)[C@H](Cc4c[nH]c5ccccc45)NC(=O)[C@H](CC(C)C)NC(=O)[C@H](CCCCN)NC(=O)[C@H](CSSC[C@H](NC(=O)[C@H]([C@@H](C)O)NC(=O)[C@H](Cc4ccccc4)NC(=O)[C@H](CCCC)NC(=O)[C@H](Cc4c[nH]c5ccccc45)NC(=O)[C@H](CCCCN)NC(=O)[C@H](CCC(N)=O)NC1=O)C(=O)N[C@@H](CC(=O)O)C(=O)N[C@@H](CO)C(=O)N[C@@H](CCCCN)C(=O)N[C@@H](CCCNC(=N)N)C(=O)N[C@@H](C)C(=O)N3)NC(=O)[C@H](CCCNC(=N)N)NC(=O)[C@H](CC(C)C)NC(=O)CNC(=O)[C@H](CCC(=O)O)NC2=O` [compound 848], in that order: 12.6 nM, 1010 nM and 80.
In the case of `C#CC[C@H](N)C(=O)N[C@@H](Cc1ccc(O)cc1)C(=O)N[C@H]1CSSC[C@@H]2NC(=O)[C@@H]3CSSC[C@@H](C(=O)N[C@@H](CCCNC(=N)N)C(=O)N[C@@H](CCCCN)C(=O)N[C@@H](CCC(=O)O)C(=O)N[C@H](C(N)=O)[C@@H](C)CC)NC(=O)[C@H](Cc4c[nH]c5ccccc45)NC(=O)[C@H]([C@@H](C)CC)NC(=O)[C@H](CCCCN)NC(=O)[C@H](CSSC[C@H](NC(=O)[C@H]([C@@H](C)O)NC(=O)[C@H](Cc4c[nH]c5ccccc45)NC(=O)[C@H](CCCC)NC(=O)[C@H](Cc4c[nH]c5ccccc45)NC(=O)[C@H](CCCCN)NC(=O)[C@H](CCC(N)=O)NC1=O)C(=O)N[C@@H](CC(=O)O)C(=O)N[C@@H](CO)C(=O)N[C@@H](CCCCN)C(=O)N[C@@H](CCCNC(=N)N)C(=O)N[C@@H](C)C(=O)N3)NC(=O)[C@H](CCCNC(=N)N)NC(=O)[C@H](CC(C)C)NC(=O)CNC(=O)[C@H](CCC(=O)O)NC2=O` [compound 855], the half-maximal inhibitory concentration (IC50) at hNav1.7 came out at 1.06 nM. For the same compound, at hNav1.4, the half-maximal inhibitory concentration (IC50) is 193 nM and the Nav1.4/Nav1.7 was found to be 182.
For `C#CC[C@H](N)C(=O)N[C@@H](Cc1ccc(O)cc1)C(=O)N[C@H]1CSSC[C@@H]2NC(=O)[C@@H]3CSSC[C@@H](C(=O)N[C@@H](CCCNC(=N)N)C(=O)N[C@@H](CCCCN)C(=O)N[C@@H](CCC(=O)O)C(=O)N[C@H](C(N)=O)[C@@H](C)CC)NC(=O)[C@H](Cc4c[nH]c5ccccc45)NC(=O)[C@H](CCCC)NC(=O)[C@H](CCCCN)NC(=O)[C@H](CSSC[C@H](NC(=O)[C@H]([C@@H](C)O)NC(=O)[C@H](Cc4c[nH]c5ccccc45)NC(=O)[C@H](CCCC)NC(=O)[C@H](Cc4c[nH]c5ccccc45)NC(=O)[C@H](CCCCN)NC(=O)[C@H](CCC(N)=O)NC1=O)C(=O)N[C@@H](CC(=O)O)C(=O)N[C@@H](CO)C(=O)N[C@@H](CCCCN)C(=O)N[C@@H](CCCNC(=N)N)C(=O)N[C@@H](C)C(=O)N3)NC(=O)[C@H](CCCNC(=N)N)NC(=O)[C@H](CC(C)C)NC(=O)CNC(=O)[C@H](CCC(=O)O)NC2=O` [compound 856], in that order: 1.72 nM, 102 nM and 59.
For the compound `C#CC[C@H](N)C(=O)N[C@@H](Cc1ccc(O)cc1)C(=O)N[C@H]1CSSC[C@@H]2NC(=O)[C@@H]3CSSC[C@@H](C(=O)N[C@@H](CCCNC(=N)N)C(=O)N[C@@H](CCCCN)C(=O)N[C@@H](CCC(=O)O)C(=O)N[C@H](C(N)=O)[C@@H](C)CC)NC(=O)[C@H](Cc4c[nH]c5ccccc45)NC(=O)[C@H](C4CCCCC4)NC(=O)[C@H](CCCCN)NC(=O)[C@H](CSSC[C@H](NC(=O)[C@H]([C@@H](C)O)NC(=O)[C@H](Cc4c[nH]c5ccccc45)NC(=O)[C@H](CCCC)NC(=O)[C@H](Cc4c[nH]c5ccccc45)NC(=O)[C@H](CCCCN)NC(=O)[C@H](CCC(N)=O)NC1=O)C(=O)N[C@@H](CC(=O)O)C(=O)N[C@@H](CO)C(=O)N[C@@H](CCCCN)C(=O)N[C@@H](CCCNC(=N)N)C(=O)N[C@@H](C)C(=O)N3)NC(=O)[C@H](CCCNC(=N)N)NC(=O)[C@H](CC(C)C)NC(=O)CNC(=O)[C@H](CCC(=O)O)NC2=O` [compound 859], the IC50 at hNav1.7 came to 0.489 nM. Further, at hNav1.4, the IC50 was 177 nM and the Nav1.4/Nav1.7 is 361.
Turning to `C#CC[C@H](N)C(=O)N[C@@H](Cc1ccc(O)cc1)C(=O)N[C@H]1CSSC[C@@H]2NC(=O)[C@@H]3CSSC[C@@H](C(=O)N[C@@H](CCCNC(=N)N)C(=O)N[C@@H](CCCCN)C(=O)N[C@@H](CCC(=O)O)C(=O)N[C@H](C(N)=O)[C@@H](C)CC)NC(=O)[C@H](Cc4c[nH]c5ccccc45)NC(=O)[C@H](CC4CCCCC4)NC(=O)[C@H](CCCCN)NC(=O)[C@H](CSSC[C@H](NC(=O)[C@H]([C@@H](C)O)NC(=O)[C@H](Cc4c[nH]c5ccccc45)NC(=O)[C@H](CCCC)NC(=O)[C@H](Cc4c[nH]c5ccccc45)NC(=O)[C@H](CCCCN)NC(=O)[C@H](CCC(N)=O)NC1=O)C(=O)N[C@@H](CC(=O)O)C(=O)N[C@@H](CO)C(=O)N[C@@H](CCCCN)C(=O)N[C@@H](CCCNC(=N)N)C(=O)N[C@@H](C)C(=O)N3)NC(=O)[C@H](CCCNC(=N)N)NC(=O)[C@H](CC(C)C)NC(=O)CNC(=O)[C@H](CCC(=O)O)NC2=O` [compound 860], the IC50 at hNav1.7 was 1.61 nM. Besides, at hNav1.4, the IC50 came out at 117 nM and the Nav1.4/Nav1.7 amounted to 73.
In the case of `C#CC[C@H](N)C(=O)N[C@@H](Cc1ccc(O)cc1)C(=O)N[C@H]1CSSC[C@@H]2NC(=O)[C@@H]3CSSC[C@@H](C(=O)N[C@@H](CCCNC(=N)N)C(=O)N[C@@H](CCCCN)C(=O)N[C@@H](CCC(=O)O)C(=O)N[C@@H](Cc4ccccc4)C(N)=O)NC(=O)[C@H](Cc4c[nH]c5ccccc45)NC(=O)[C@H](CC(C)C)NC(=O)[C@H](CCCCN)NC(=O)[C@H](CSSC[C@H](NC(=O)[C@H]([C@@H](C)O)NC(=O)[C@H](Cc4c[nH]c5ccccc45)NC(=O)[C@H](CCCC)NC(=O)[C@H](Cc4c[nH]c5ccccc45)NC(=O)[C@H](CCCCN)NC(=O)[C@H](CCC(N)=O)NC1=O)C(=O)N[C@@H](CC(=O)O)C(=O)N[C@@H](CO)C(=O)N[C@@H](CCCCN)C(=O)N[C@@H](CCCNC(=N)N)C(=O)N[C@@H](C)C(=O)N3)NC(=O)[C@H](CCCNC(=N)N)NC(=O)[C@H](CC(C)C)NC(=O)CNC(=O)[C@H](CCC(=O)O)NC2=O` [compound 861], the IC50 at hNav1.7 was determined as 0.388 nM. On hNav1.4, the half-inhibitory concentration (IC50) was found to be 304 nM and the Nav1.4/Nav1.7 amounted to 785.
